Assay results taken from patent publication US7416885B2, “Proliferated cell lines and uses thereof” (University of South Florida, priority 2002, dated 2008).

Experiments:
[1] = target: receptors for α-bungarotoxin (Homo sapiens, UniProt P02708+P07510+Q07001); type: binding
RCSN-3 cells [2] = system: RCSN-3 cells
RCSN-3 cells [3] = system: RCSN-3 cells; remark: listed apart in the source
RCVC cells = test: 45Ca2+ influx in RCVC cells; type: cell-based, rat; settings: normally polarized cells
RCSN-3 cells [4] = test: melanin fluorescence in RCSN-3 cells preincubated with L-Dopa; type: cell-based, rat; settings: for melanin, mean: L-DOPA, n 3 (ANOVA summary); for melanin, Average: L-DOPA (+), 100 microM, 24 hrs
Experimental: RCSN-3 cells were preincubated for 24 hrs in the presence of 100 microM L-Dopa. Cells were lysed with a hypotonic buffer. […] Oxidation of melanin in vitro degraded the melanin polymer, resulting in a fluorescent solution. Fluorescence spectroscopy gave an excitation maximum at approximately 470 nm and an emission maximum at approximately 540 nm for both natural and synthetic melanin. Increasing the time of exposure to light or hydrogen peroxide increased melanin fluorescence (Kayatz, P et al., Invest Ophthalmol Vis Sci, January 2001,42(1):241–6).

[5] = target: T1, receptors for dihydropyridines (Homo sapiens, UniProt Q13698); test: dihydropyridine ([3H]PN200-110) binding to RCMH cells
T1 construct: endogenous in cells; host or cells: RCMH (immortalized human skeletal muscle cell line)

[6] = target: single class of receptors for [3H]en-TTX; type: binding, rat
UCHCC1 cells = type: cell-based, rat; settings: read-out: half-maximal inhibitory concentration
[7] = target: microsomal fraction from RCVC cells (Rattus norvegicus, UniProt P22002); test: 3H-nitrendipine binding to microsomal fraction of RCVC cells; settings: read-out: equilibrium dissociation constant
[8] = system: MAO B activity in RCSN-3 cell lysates; test: MPP+ production by RCSN-3 cell lysates incubated with MPTP (HPLC); type: biochemical, rat
Experimental: To verify if RCSN-3 cells can produce MPP^+ from MPTP, lisates of RCSN-3 cells (differentiated and non-differentiated) were incubated with MPTP. Differentiation was induced by culturing in F10 media+2% adult bovine serum for one week. Non-differentiated conditions were attained with F10 media+10% adult bovine serum and 2.5% fetal bovine serum. Lisate buffer was PBS with 50 μM PMSF and a protease inhibiting cocktail (leupeptin, pepstatine, chemostatin). Samples were incubated with MPTP and MPP^+ for 15 min. at 37° C. HPLC studies were carried out in a SHIMADZU HPLC with […], reading at 245 nm. Results are shown in FIGS. 16A–C, FIGS. 17A–D, and FIGS. 18A–C.

RCSN cells = test: intracellular Ca2+ imaging in Fluo-3 loaded RCSN cells; type: cell-based, rat; settings: differentiated cells, 200 μM glutamate applied externally

receptors for α-bungarotoxin, sequence (P02708 21-457 limits assumed): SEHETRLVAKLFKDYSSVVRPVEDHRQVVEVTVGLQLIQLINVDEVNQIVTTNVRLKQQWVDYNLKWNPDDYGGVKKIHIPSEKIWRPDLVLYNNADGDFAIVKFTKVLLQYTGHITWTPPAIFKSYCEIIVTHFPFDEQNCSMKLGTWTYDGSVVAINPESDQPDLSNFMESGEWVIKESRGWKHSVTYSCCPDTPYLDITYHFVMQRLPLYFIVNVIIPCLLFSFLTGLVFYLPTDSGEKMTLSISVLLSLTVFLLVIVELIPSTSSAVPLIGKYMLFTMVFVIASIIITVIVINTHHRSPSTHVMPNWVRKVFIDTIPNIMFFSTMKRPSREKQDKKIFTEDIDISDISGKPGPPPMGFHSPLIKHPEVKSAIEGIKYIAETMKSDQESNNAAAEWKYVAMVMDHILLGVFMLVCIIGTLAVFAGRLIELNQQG
receptors for α-bungarotoxin, sequence (P07510 23-517 limits assumed): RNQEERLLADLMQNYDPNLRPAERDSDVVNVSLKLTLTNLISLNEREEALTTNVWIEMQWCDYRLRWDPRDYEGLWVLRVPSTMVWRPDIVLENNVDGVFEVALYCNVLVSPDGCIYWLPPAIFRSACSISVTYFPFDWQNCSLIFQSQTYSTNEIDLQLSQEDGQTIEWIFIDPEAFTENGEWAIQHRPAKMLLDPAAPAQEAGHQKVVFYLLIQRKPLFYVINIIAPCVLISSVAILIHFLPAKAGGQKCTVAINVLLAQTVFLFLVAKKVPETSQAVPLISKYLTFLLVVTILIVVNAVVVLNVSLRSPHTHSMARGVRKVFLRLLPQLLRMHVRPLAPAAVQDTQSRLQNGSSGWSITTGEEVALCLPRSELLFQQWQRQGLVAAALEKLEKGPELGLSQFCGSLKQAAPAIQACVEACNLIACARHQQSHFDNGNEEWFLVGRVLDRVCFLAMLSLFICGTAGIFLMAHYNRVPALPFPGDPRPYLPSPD
receptors for α-bungarotoxin, sequence (Q07001 22-517 limits assumed): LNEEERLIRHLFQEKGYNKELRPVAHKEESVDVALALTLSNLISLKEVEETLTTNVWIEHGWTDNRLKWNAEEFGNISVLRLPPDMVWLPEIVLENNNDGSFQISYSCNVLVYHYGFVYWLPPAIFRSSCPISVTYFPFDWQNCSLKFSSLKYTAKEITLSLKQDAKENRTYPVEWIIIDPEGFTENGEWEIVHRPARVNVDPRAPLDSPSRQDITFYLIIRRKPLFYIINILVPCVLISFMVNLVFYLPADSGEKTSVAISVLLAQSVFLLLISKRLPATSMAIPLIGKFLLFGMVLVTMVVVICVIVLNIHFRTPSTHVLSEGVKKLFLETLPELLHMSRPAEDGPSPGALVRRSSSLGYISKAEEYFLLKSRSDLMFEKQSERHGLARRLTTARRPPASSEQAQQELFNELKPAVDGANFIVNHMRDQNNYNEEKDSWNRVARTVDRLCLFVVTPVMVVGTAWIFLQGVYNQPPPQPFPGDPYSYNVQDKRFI
T1 sequence (Q13698 whole entry): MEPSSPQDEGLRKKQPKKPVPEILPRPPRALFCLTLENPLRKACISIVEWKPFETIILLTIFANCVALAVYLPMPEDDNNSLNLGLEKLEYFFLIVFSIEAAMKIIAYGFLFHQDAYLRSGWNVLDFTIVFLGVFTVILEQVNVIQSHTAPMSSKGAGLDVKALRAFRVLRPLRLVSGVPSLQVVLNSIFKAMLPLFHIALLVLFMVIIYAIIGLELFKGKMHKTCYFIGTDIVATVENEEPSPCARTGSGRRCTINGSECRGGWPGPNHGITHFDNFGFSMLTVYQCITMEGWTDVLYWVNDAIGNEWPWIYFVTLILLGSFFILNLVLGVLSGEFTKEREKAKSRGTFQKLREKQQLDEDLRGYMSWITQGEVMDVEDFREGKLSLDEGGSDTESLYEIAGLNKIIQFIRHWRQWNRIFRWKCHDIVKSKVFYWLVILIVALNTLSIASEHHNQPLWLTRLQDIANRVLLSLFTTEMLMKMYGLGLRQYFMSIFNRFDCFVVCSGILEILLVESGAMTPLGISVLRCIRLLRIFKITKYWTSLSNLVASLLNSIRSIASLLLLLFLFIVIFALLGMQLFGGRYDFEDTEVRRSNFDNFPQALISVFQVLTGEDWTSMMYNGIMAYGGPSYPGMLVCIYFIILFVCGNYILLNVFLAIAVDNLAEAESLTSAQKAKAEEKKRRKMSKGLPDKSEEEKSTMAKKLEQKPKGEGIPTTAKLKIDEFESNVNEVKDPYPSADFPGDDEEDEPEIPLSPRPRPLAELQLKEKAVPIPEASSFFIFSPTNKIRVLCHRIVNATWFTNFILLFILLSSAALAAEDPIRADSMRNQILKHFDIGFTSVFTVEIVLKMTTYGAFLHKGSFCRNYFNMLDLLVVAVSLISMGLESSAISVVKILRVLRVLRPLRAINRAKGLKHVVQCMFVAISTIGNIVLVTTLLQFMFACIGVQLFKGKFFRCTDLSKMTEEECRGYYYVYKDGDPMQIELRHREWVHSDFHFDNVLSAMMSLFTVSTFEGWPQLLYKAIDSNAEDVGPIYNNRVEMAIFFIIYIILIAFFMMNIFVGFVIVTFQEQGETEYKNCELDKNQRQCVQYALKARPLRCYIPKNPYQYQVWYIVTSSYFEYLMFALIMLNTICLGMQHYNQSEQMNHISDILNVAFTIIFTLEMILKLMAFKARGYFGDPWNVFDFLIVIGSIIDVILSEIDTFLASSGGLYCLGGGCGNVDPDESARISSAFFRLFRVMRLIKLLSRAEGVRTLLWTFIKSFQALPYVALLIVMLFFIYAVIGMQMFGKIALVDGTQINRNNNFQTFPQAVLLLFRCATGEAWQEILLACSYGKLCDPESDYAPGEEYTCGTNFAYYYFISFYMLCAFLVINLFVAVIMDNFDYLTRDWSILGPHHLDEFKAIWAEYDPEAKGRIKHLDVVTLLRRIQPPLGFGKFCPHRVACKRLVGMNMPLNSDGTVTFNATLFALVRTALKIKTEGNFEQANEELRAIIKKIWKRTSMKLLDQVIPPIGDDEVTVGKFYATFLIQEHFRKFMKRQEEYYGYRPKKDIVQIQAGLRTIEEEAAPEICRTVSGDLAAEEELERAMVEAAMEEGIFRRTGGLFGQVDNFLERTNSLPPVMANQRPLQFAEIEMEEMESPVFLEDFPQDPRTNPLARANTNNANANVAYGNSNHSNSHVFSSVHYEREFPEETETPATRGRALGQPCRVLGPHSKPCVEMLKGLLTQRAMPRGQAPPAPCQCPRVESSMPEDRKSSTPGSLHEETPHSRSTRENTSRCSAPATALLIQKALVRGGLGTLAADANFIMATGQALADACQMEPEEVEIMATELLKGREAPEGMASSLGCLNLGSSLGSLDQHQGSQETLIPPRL

α-bungarotoxin
Bmax [1]: 0.7 pmol/mg protein | Kd [1]: 1.5 nM

C[n+]1ccc(-c2ccccc2)cc1 [MPP+, 1-methyl-4-phenylpyridinium]
mitochondrial membrane potential (JC-1 fluorescence) (RCSN-3 cells [2]): affects mitochondrial function | ratio of emission between JC-1 and J monomer, normalized to basal fluorescence (RCSN-3 cells [2]): significant differences from controls | DNA fragmentation (TUNEL) (RCSN-3 cells [3]): fragmentation of DNA

CCOC(=O)C1=C(C)NC2=C(C(=O)OC2)C1c1ccccc1OC(F)F (centres unmarked) [CGP-28392]
45Ca2+ influx induced by calcium channel agonist (RCVC cells): equivalent influx

N[C@@H](Cc1ccc(O)c(O)c1)C(=O)O [L-DOPA, levodopa]
melanin, mean (RCSN-3 cells [4]; Glass): 0.03305 | melanin, mean (RCSN-3 cells [4]; Plastic): 0.04045 | melanin, Average (RCSN-3 cells [4]; glass dishes): 0.033 | melanin, Average (RCSN-3 cells [4]; plastic dishes): 0.040

NCCc1ccc(O)c(O)c1 [dopamine]
mitochondrial membrane potential (JC-1 fluorescence) (RCSN-3 cells [2]): decrease in membrane potential | ratio of emission between JC-1 and J monomer, normalized to basal fluorescence (RCSN-3 cells [2]): significant differences from controls

[Mn+2] [manganese]
mitochondrial membrane potential (JC-1 fluorescence) (RCSN-3 cells [2]): decrease in membrane potential | ratio of emission between JC-1 and J monomer, normalized to basal fluorescence (RCSN-3 cells [2]): significant differences from controls

COC(=O)C1=C(C)NC(C)=C(C(=O)OC(C)C)C1c1cccc2nonc12 (centres unmarked) [[^3H]PN200-110]
Bmax [5]: 0.3 pmol/mg protein | Kd [5]: 0.5 nM

[^3H]ethylenediamine-tetrodotoxin [[^3H]en-TTX]
Kd [6]: 1.1 nM | maximal binding (Bmax) [6]: 173 fmol/mg protein

NC1=N[C@H](O)[C@H]2[C@H]3O[C@]4(O)O[C@@H]([C@@H](O)[C@@]2(N1)[C@@H]4O)[C@]3(O)CO [tetrodotoxin]
IC50 (UCHCC1 cells): 0.9 nM

COC(=O)C1=C(C)NC(C)=C([N+](=O)[O-])C1c1ccccc1C(F)(F)F (centres unmarked) [BAYK-8644]
45Ca2+ influx induced by calcium channel agonist (RCVC cells): equivalent influx

CCOC(=O)C1=C(C)NC(C)=C(C(=O)OC)C1c1cccc([N+](=O)[O-])c1 (centres unmarked) [^3H-nitrendipine, nitrendipine]
Kd [7]: 0.7 nM

CN1CC=C(c2ccccc2)CC1 [MPTP, 1-methyl-4-phenyl-1,2,3,6-tetrahydropyridine]
production of MPP+ from MPTP [8]: no production of MPP^+

N[C@@H](CCC(=O)O)C(=O)O [glutamate]
cells responding with increases in Ca2+ (RCSN cells): up to 40%
